According to ChEMBL document CHEMBL1201862, “PubChem BioAssay data set” (2004):
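Exposure lasted 48 hours, with cells grown in 96-well plates and compounds tested at five concentrations. GI50 = concentration required for 50% inhibition of growth.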 Activity calls are given as the source filed them. Rule as the data show it: active = GI50 up to about 1.1 µM and inactive = higher.

Tests used:
Assay in all cases: NCI anticancer screen, dose series, 48 h
[1] = system: DMS-273
[2] = system: M19-MEL
[3] = system: LXFL 529
[4] = system: HOP-18
[5] = system: XF498
[6] = system: DMS-114
[7] = system: DLD-1
[8] = system: RXF 631
[9] = system: SNB-78

| SMILES | GI50 [1] | GI50 [2] | GI50 [3] | GI50 [4] | GI50 [5] | GI50 [6] | GI50 [7] | GI50 [8] | GI50 [9] |
| --- | --- | --- | --- | --- | --- | --- | --- | --- | --- |
| CNC(=O)c1cccc2c(Nc3ccc(NS(C)(=O)=O)cc3OC)c3cccc(C)c3nc12 | 0.0219 µM (active) | 0.585 µM (active) | 1.91 µM (inactive) | 0.571 µM (active) | 0.196 µM (active) | 0.0322 µM (active) | – | – | – |
| COC(=O)C1=C(C(=O)OC)C2(C)OC1C(=O)C21CC1 (stereo not given) | 17.7 µM (inactive) | 71 µM (inactive) | 19.5 µM (inactive) | – | 13.6 µM (inactive) | 20.4 µM (inactive) | 19.1 µM (inactive) | 17.1 µM (inactive) | – |
| CC(=O)OC1C(CCl)OC(N=[N+]=[N-])C(OC(C)=O)C1OC(C)=O (stereo not given) | > 100 µM (inactive) | > 100 µM (inactive) | > 10 µM (inactive) | – | > 100 µM (inactive) | > 100 µM (inactive) | > 100 µM (inactive) | > 100 µM (inactive) | – |
| O=C(O)C1(c2ccccc2)CCCNCC1 (stereo not given) | > 100 µM (inactive) | > 100 µM (inactive) | > 100 µM (inactive) | > 100 µM (inactive) | – | > 100 µM (inactive) | > 100 µM (inactive) | > 100 µM (inactive) | > 100 µM (inactive) |
| CN(C)C(=S)/N=c1\ssc(=S)n1-c1ccccc1 | 20.9 µM (inactive) | 16.3 µM (inactive) | 12.4 µM (inactive) | > 100 µM (inactive) | 14.7 µM (inactive) | 15.9 µM (inactive) | 13.8 µM (inactive) | – | 19.4 µM (inactive) |
| COc1cc(C2(C)SCCCS2)c(I)c(OC)c1OC | > 100 µM (inactive) | > 100 µM (inactive) | > 100 µM (inactive) | > 100 µM (inactive) | > 100 µM (inactive) | > 100 µM (inactive) | > 100 µM (inactive) | > 100 µM (inactive) | > 100 µM (inactive) |
| Cc1cc(NS(=O)(=O)c2ccc(NC(=O)c3ccc(Cl)c4c(Nc5ccc(S(=O)(=O)N=C(N)N)cc5)c5ccccc5nc34)cc2)no1 | – | 46.8 µM (inactive) | 31.8 µM (inactive) | – | 17.6 µM (inactive) | 62.4 µM (inactive) | > 100 µM (inactive) | – | 41.9 µM (inactive) |
| CP(C)C.[Ag][I] | > 100 µM (inactive) | > 100 µM (inactive) | 16 µM (inactive) | 62.8 µM (inactive) | 15 µM (inactive) | 73.8 µM (inactive) | > 100 µM (inactive) | 24.3 µM (inactive) | 28.4 µM (inactive) |
| COc1ccc2[nH]cc(CCNC(C)=O)c2c1 [MELATONIN] | > 100 µM (inactive) | > 100 µM (inactive) | > 100 µM (inactive) | > 100 µM (inactive) | > 100 µM (inactive) | > 100 µM (inactive) | > 100 µM (inactive) | – | > 100 µM (inactive) |
| COc1cc(N)c2[nH]c3c(C)ccc(C)c3c2c1 | > 100 µM (inactive) | > 100 µM (inactive) | – | – | > 100 µM (inactive) | > 100 µM (inactive) | > 100 µM (inactive) | – | > 100 µM (inactive) |
| COC(=O)/C(=N\NC(=S)NN)C(C(=O)C(=O)Nc1ccccc1C(N)=O)c1nc2ccccc2nc1O (stereo not given) | > 100 µM (inactive) | > 100 µM (inactive) | > 100 µM (inactive) | > 100 µM (inactive) | > 100 µM (inactive) | > 100 µM (inactive) | – | > 100 µM (inactive) | > 100 µM (inactive) |
| CC(C)(C)C(=O)OC12/C(=N/O)CCCCCC1c1ccccc12 (stereo not given) | 17.9 µM (inactive) | 16.6 µM (inactive) | 16.3 µM (inactive) | 18.8 µM (inactive) | – | 19.4 µM (inactive) | 19.5 µM (inactive) | – | 25.1 µM (inactive) |
| Cc1ccc(C2=Nc3ccccc3SC(c3cccc4c3OCO4)C2)cc1 (stereo not given) | 19.7 µM (inactive) | 19.8 µM (inactive) | 15 µM (inactive) | 13.5 µM (inactive) | 15.5 µM (inactive) | – | 27.9 µM (inactive) | – | – |
| O=C1CCN2C(=Nc3cccc4cccc2c34)N1 | > 100 µM (inactive) | > 100 µM (inactive) | > 100 µM (inactive) | – | > 100 µM (inactive) | > 100 µM (inactive) | – | – | > 100 µM (inactive) |
| CCOC(=O)C1=C(O)C(=O)c2ccsc2C1=O | > 100 µM (inactive) | 20.6 µM (inactive) | – | > 100 µM (inactive) | – | > 100 µM (inactive) | > 100 µM (inactive) | – | > 100 µM (inactive) |
| COc1cccc(-c2cc(O)c3ccccc3n2)c1 | 4.53 µM (inactive) | 8.15 µM (inactive) | 4.86 µM (inactive) | 15.2 µM (inactive) | 4.07 µM (inactive) | 4.69 µM (inactive) | 3.63 µM (inactive) | – | – |
| CC(=O)OC1CC2C(C)(C)C(=O)C=C[C@]2(C)C2CCC3(C)C(c4ccoc4)C(=O)C4OC43[C@]12C (stereo not given in full) | 31.6 µM (inactive) | 16 µM (inactive) | 22.6 µM (inactive) | 99.3 µM (inactive) | – | 16.1 µM (inactive) | 16.5 µM (inactive) | – | 51.1 µM (inactive) |
| CCc1c(CNc2ccc(C(=O)NC(CC(=O)O)C(=O)O)cc2)ccc2nc(N)nc(N)c12 (stereo not given) | < 0.0202 µM (active) | 0.133 µM (active) | – | > 61.9 µM (inactive) | > 100 µM (inactive) | < 0.0262 µM (active) | < 0.0223 µM (active) | – | > 60.3 µM (inactive) |
| Cc1cccc(C)c1NC(=O)CCc1n[nH]c(=S)o1 | 44.7 µM (inactive) | > 100 µM (inactive) | > 100 µM (inactive) | > 100 µM (inactive) | – | 39.1 µM (inactive) | 67.9 µM (inactive) | – | > 100 µM (inactive) |
| CCOC(=O)C(NO)C(Sc1ccccc1)c1ccc(OC)cc1 (stereo not given) | > 100 µM (inactive) | 69.2 µM (inactive) | > 100 µM (inactive) | > 100 µM (inactive) | 31 µM (inactive) | 64.7 µM (inactive) | 72.9 µM (inactive) | – | > 100 µM (inactive) |
| COc1ccc(N2C(=O)/C(=C/c3ccc(N(CCC#N)CCC#N)cc3C)N=C2/C=C\c2ccccc2)cc1 | – | 26.5 µM (inactive) | 8.43 µM (inactive) | > 100 µM (inactive) | – | 23.9 µM (inactive) | > 100 µM (inactive) | > 100 µM (inactive) | > 100 µM (inactive) |
| COc1cccc(/C=C(/C(=O)O)c2cc(OC)c(OC)c(OC)c2)c1 | > 100 µM (inactive) | > 100 µM (inactive) | > 100 µM (inactive) | > 100 µM (inactive) | 37.8 µM (inactive) | > 100 µM (inactive) | > 100 µM (inactive) | > 100 µM (inactive) | > 100 µM (inactive) |
| C=C[C@@]12CCCCC1C/C(=C(/O)OC)C(=O)C2 (stereo not given in full) | > 100 µM (inactive) | > 100 µM (inactive) | > 100 µM (inactive) | > 100 µM (inactive) | > 100 µM (inactive) | > 100 µM (inactive) | > 100 µM (inactive) | > 100 µM (inactive) | > 100 µM (inactive) |
| O=C(O)c1nccnc1C(=O)O | > 100 µM (inactive) | > 100 µM (inactive) | > 100 µM (inactive) | – | > 100 µM (inactive) | > 100 µM (inactive) | > 100 µM (inactive) | > 100 µM (inactive) | – |
